How the values were obtained:
MAGL [1] = molecular target: T1, MAGL (Homo sapiens, UniProt Q99685); experiment: In vitro competitive activity-based protein profiling, MAGL, human; settings: read-out: MAGL % inh. 1 μM (human)
T1 sequence (Q99685 1-303): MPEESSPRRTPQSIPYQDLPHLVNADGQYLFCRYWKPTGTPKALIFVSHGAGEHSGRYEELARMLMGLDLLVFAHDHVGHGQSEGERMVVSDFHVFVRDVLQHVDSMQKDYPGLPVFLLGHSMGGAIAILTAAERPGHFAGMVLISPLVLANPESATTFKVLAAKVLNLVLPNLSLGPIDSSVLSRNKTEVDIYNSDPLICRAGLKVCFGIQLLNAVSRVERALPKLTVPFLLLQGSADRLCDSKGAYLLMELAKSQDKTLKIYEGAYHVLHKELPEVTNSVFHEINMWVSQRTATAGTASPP

MAGL [2] = molecular target: T2, MAGL (Mus musculus, UniProt O35678); experiment: In vitro competitive activity-based protein profiling, MAGL, mouse; settings: read-out: MAGL % inh. 1 μM (mouse)
T2 sequence (O35678 1-303): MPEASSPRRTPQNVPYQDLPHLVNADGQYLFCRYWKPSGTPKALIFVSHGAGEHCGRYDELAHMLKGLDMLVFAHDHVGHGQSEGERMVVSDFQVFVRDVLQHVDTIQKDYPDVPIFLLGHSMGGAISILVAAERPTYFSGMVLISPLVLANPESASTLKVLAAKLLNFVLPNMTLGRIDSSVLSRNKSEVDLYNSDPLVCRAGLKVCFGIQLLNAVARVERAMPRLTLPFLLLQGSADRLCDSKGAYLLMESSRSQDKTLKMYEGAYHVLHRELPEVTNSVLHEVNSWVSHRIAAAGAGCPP

Row | SMILES | inhibition at 1 µM (MAGL [1]) [%] | inhibition at 1 µM (MAGL [2]) [%]
1 | O=C(O)c1nn(C(=O)N2CCN(Cc3cccc(-c4cncnc4)c3)CC2)cc1Cl [Example 270, 4-chloro-1-(4-(3-(pyrimidin-5-yl)benzyl)piperazine-1-carbonyl)-1H-pyrazole-3-carboxylic acid] | > 75 | > 75
2 | CN(Cc1cccc(C(F)(F)F)c1)C1(C)CCN(C(=O)n2ccc(C(N)=O)n2)CC1 [Example 258, 1-(4-methyl-4-(methyl(3-(trifluoromethyl)benzyl)amino)piper-idine-1-carbonyl)-1H-pyrazole-3-carboxamide] | > 75 | > 75
3 | O=C(O)c1ccn(C(=O)N2CCC(OCc3cc(Cl)cc(C(F)(F)F)c3)CC2)n1 [Example 275, 1-(4-((3-chloro-5-(trifluoromethyl)benzyl)oxy)piper-idine-1-carbonyl)-1H-pyrazole-3-carboxylic acid] | > 75 | > 75
4 | O=C(O)c1ccn(C(=O)N2CCN(Cc3ccc(Cl)c(-c4nccs4)c3)CC2)n1 [Example 274, 1-(4-(4-chloro-3-(thiazol-2-yl)benzyl)piperazine-1-carbonyl)-1H-pyrazole-3-carboxylic acid] | > 75 | > 75
5 | O=C(O)c1ccn(C(=O)N2CCC3(CCN(Cc4cccc(Cl)c4)C3)CC2)n1 [Example 227, 1-(2-(3-chlorobenzyl)-2,8-diazaspiro[4.5]decane-8-carbonyl)-1H-pyrazole-3-carboxylic acid] | > 75 | 25 to 50
6 | Cc1cn(C(=O)N2CCC3(CCN(Cc4cc(Cl)cc(Cl)c4)C3)CC2)nc1C(=O)O [Example 316, 1-(2-(3,5-dichlorobenzyl)-2,8-diazaspiro[4.5]decane-8-carbonyl)-4-methyl-1H-pyrazole-3-carboxylic acid] | > 75 | > 75
7 | O=C(O)c1ccn(C(=O)N2CCC3(CCN(Cc4cccc(Cl)c4Cl)C3)CC2)n1 [Example 286, 1-(2-(2,3-dichlorobenzyl)-2,8-diazaspiro[4.5]decane-8-carbonyl)-1H-pyrazole-3-carboxylic acid] | > 75 | > 75
8 | O=C(O)c1ccn(C(=O)N2C[C@H]3C[C@H](Oc4ccccc4-c4cccnc4)C[C@H]3C2)n1 [Example 244, 1-(trans-5-(2-(pyridin-3-yl)phenoxy)octa-hydrocyclopenta[c]pyrrole-2-carbonyl)-1H-pyrazole-3-carboxylic acid] | > 75 | > 75
9 | C[C@@H]1CN(Cc2cccc(Oc3ccc(Cl)cc3)c2)CCN1C(=O)n1ccc(C(N)=O)n1 [Example 310, (R)-1-(4-(3-(4-chlorophenoxy)benzyl)-2-methylpiperazine-1-carbonyl)-1H-pyrazole-3-carboxamide] | > 75 | > 75
10 | O=C(O)c1ccn(C(=O)N2CCC(OCc3cccc(N4CCCC4)c3)CC2)n1 [Example 226, 1-(4-((3-(pyrrolidin-1-yl)benzyl)oxy)piper-idine-1-carbonyl)-1H-pyrazole-3-carboxylic acid] | > 75 | > 75
11 | C[C@H]1C[C@H](N(C)Cc2cccc(C(F)(F)F)c2)CCN1C(=O)n1ccc(C(N)=O)n1 [Example 259, 1-((2S,4R)-2-methyl-4-(methyl(3-(trifluoromethyl)benzyl)amino)piperidine-1-carbonyl)-1H-pyrazole-3-carboxamide] | > 75 | > 75
12 | C[C@@H]1CN(Cc2cc(Cl)cc(C(F)(F)F)c2)CCN1C(=O)n1ccc(C(N)=O)n1 [Example 272, (R)-1-(4-(3-chloro-5-(trifluoromethyl)benzyl)-2-methylpiperazine-1-carbonyl)-1H-pyrazole-3-carboxamide] | > 75 | > 75
13 | O=C(O)c1ccn(C(=O)N2CCC(OCc3cc(Cl)cc(Cl)c3)CC2)n1 [Example 224, 1-(4-((3,5-dichlorobenzyl)oxy)piperidine-1-carbonyl)-1H-pyrazole-3-carboxylic acid] | > 75 | > 75
14 | O=C(O)c1ccn(C(=O)N2C[C@H]3C[C@H](Oc4cc(Cl)ccc4C(F)(F)F)C[C@H]3C2)n1 [Example 297, 1-(trans-5-(5-chloro-2-(trifluoromethyl)phenoxy)octahydro-cyclopenta[c]pyrrole-2-carbonyl)-1H-pyrazole-3-carboxylic acid] | > 75 | > 75

Next, values leading:

Row | inhibition at 1 µM (MAGL [1]) [%] | inhibition at 1 µM (MAGL [2]) [%] | SMILES
15 | 25 to 50 | 0 to 25 | O=C(O)c1ccn(C(=O)N2CCC3(CCN(Cc4cccc(Oc5ccccn5)c4)C3)CC2)n1 [Example 324, 1-(2-(3-(pyridin-2-yloxy)benzyl)-2,8-diazaspiro[4.5]decane-8-carbonyl)-1H-pyrazole-3-carboxylic acid]
16 | 0 to 25 | 25 to 50 | O=C(O)c1ccn(C(=O)N2CCC3(CCN(Cc4ccc(Cl)c(N5CCOCC5)c4)C3)CC2)n1 [Example 372, 1-(2-(4-chloro-3-morpholinobenzyl)-2,8-diazaspiro[4.5]decane-8-carbonyl)-1H-pyrazole-3-carboxylic acid]
17 | > 75 | > 75 | Cc1cn(C(=O)N2CCN(Cc3cc(F)cc(Oc4ccc(Cl)cc4)c3)CC2)nc1C(=O)O [Example 346, 1-(4-(3-(4-chlorophenoxy)-5-fluorobenzyl)piper-azine-1-carbonyl)-4-methyl-1H-pyrazole-3-carboxylic acid]
18 | > 75 | > 75 | Cc1c(CN2CCC3(CCN(C(=O)n4ccc(C(=O)O)n4)CC3)C2)cccc1-c1ccccc1 [Example 322, 1-(2-((2-methyl-[1,1′-biphenyl]-3-yl)methyl)-2,8-diazaspiro[4.5]decane-8-carbonyl)-1H-pyrazole-3-carboxylic acid]
19 | > 75 | > 75 | O=C(O)c1ccn(C(=O)N2CCC3(CCN(Cc4cccc(C(F)(F)F)c4Cl)C3)CC2)n1 [Example 339, 1-(2-(2-chloro-3-(trifluoromethyl)benzyl)-2,8-diazaspiro[4.5]decane-8-carbonyl)-1H-pyrazole-3-carboxylic acid]
20 | > 75 | > 75 | C[C@@H]1CN(Cc2cc(F)cc(Oc3ccccc3Cl)c2)CCN1C(=O)n1ccc(C(=O)O)n1 [Example 350, (R)-1-(4-(3-(2-chlorophenoxy)-5-fluorobenzyl)-2-methylpiperazine-1-carbonyl)-1H-pyrazole-3-carboxylic acid]
21 | > 75 | > 75 | C[C@@H]1CN(Cc2ccc(C(F)(F)F)cc2N2CCCC2)CCN1C(=O)n1ccc(C(N)=O)n1 [Example 325, (R)-1-(2-methyl-4-(2-(pyrrolidin-1-yl)-4-(trifluoromethyl)benzyl)piperazine-1-carbonyl)-1H-pyrazole-3-carboxamide]
22 | 50 to 75 | > 75 | Cc1cc(-c2cccc(S(C)(=O)=O)c2)ccc1CN1CCN(C(=O)n2ccc(C(=O)O)n2)[C@H](C)C1 [Example 386, (R)-1-(2-methyl-4-((3-methyl-3′-(methylsulfonyl)-[1,1′-biphenyl]-4-yl)methyl)piperazine-1-carbonyl)-1H-pyrazole-3-carboxylic acid]
23 | > 75 | > 75 | NC(=O)c1ccn(C(=O)N2CC3CN(Cc4ccc(C5(O)CCOCC5)cc4C(F)(F)F)CC3C2)n1 (centres unmarked) [Example 396]
24 | > 75 | > 75 | C[C@H]1CN(Cc2ccc(C(F)(F)F)cc2N2CCCC2)CCN1C(=O)n1ccc(C(N)=O)n1 [Example 326, (S)-1-(2-methyl-4-(2-(pyrrolidin-1-yl)-4-(trifluoromethyl)benzyl)piperazine-1-carbonyl)-1H-pyrazole-3-carboxamide]
25 | > 75 | > 75 | O=C(O)c1ccn(C(=O)N2CCC3(CCN(Cc4cc(N5CCCC5)ccc4C(F)(F)F)C3)CC2)n1 [Example 391, 1-(2-(5-(pyrrolidin-1-yl)-2-(trifluoromethyl)benzyl)-2,8-diazaspiro[4.5]decane-8-carbonyl)-1H-pyrazole-3-carboxylic acid]
26 | > 75 | > 75 | O=C(O)c1ccn(C(=O)N2CCN(Cc3cccc(Oc4cnccc4C(F)(F)F)c3)CC2)n1 [Example 352, 1-(4-(3-((4-(trifluoromethyl)pyridin-3-yl)oxy)benzyl)piper-azine-1-carbonyl)-1H-pyrazole-3-carboxylic acid]
27 | 25 to 50 | 0 to 25 | O=C(O)c1ccn(C(=O)N2CCC3(CCCN3Cc3ccc(C(F)(F)F)cc3N3CCN4CCC[C@@H]4C3)CC2)n1 [Example 417, (R)-1-(1-(2-(hexahydropyrrolo[1,2-a]pyrazin-2(1H)-yl)-4-(trifluoromethyl)benzyl)-1,8-diazaspiro[4.5]decane-8-carbonyl)-1H-pyrazole-3-carboxylic acid]
28 | > 75 | > 75 | O=C(O)c1ccn(C(=O)N2CCC3(CCCN3Cc3ccc(C(F)(F)F)cc3N3CCOCC3)CC2)n1 [Example 405, 1-(1-(2-morpholino-4-(trifluoromethyl)benzyl)-1,8-diazaspiro[4.5]decane-8-carbonyl)-1H-pyrazole-3-carboxylic acid]

Reference: patent US10266497B2 (ABIDE THERAPEUTICS, INC., priority 2017, dated 2019)
